Test results reported in patent publication US8987249B2, “Substituted 2-Aza-bicyclo[2.2.1]heptane-3-carboxylic acid (benzyl-cyano-methyl)-amides inhibitors of Cathepsin C” (Boehringer Ingelheim International GmbH, priority 2013, dated 2015).

Tests used:
[1] = molecular target: recombinant human DPPI (Cathepsin C) (Homo sapiens (Human), UniProt P53634); test: Inhibition of human DPPI (Cathepsin C); format: biochemical; conditions: substrate Gly-Arg-AMC
Method in brief: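 Fluorescence read after 30 min room-temperature turnover of 50 μM (final) substrate by recombinant human cathepsin C, pH 6.0 MES/NaCl/DTT/BSA buffer, quenched by Gly-Phe-DMK (1 μM final). Activity as percent of vehicle after background subtraction, used for IC50.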

[2] = Determination of metabolic stability with human liver microsomes; conditions: pooled human liver microsomes; for half-life at 1 μM: human, pH 7.6
[3] = molecular target: recombinant human Cathepsin K (Homo sapiens (Human), UniProt P43235); test: Inhibition of human Cathepsin K; format: biochemical; conditions: substrate Z-Gly-Pro-Arg-AMC
recombinant human Cathepsin K, sequence (P43235 115-329): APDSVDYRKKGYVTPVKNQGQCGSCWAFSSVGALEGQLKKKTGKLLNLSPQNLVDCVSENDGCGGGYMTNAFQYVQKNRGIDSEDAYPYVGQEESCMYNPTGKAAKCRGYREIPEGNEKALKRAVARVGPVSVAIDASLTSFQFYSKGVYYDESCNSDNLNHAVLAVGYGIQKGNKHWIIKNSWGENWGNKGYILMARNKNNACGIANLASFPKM
From the text: Inhibition of Human Cathepsin K
Materials: Microtiterplates (Optiplate-384 F were purchased from PerkinElmer (Prod. No. 6007270). The substrate Z-Gly-Pro-Arg-AMC was from Biomol (Prod.-No. P-142). L-Cysteine (Prod. No. 168149) was from Sigma. Sodium acetate was from Merck (Prod.-No. 6268.0250), EDTA was from Fluka (Prod.-No. 03680). The inhibitor E-64 was purchased from Sigma (Prod.-No. E3132). The recombinant human Cathepsin K proenzyme was purchased from Biomol (Prod. No. SE-367). All other materials were of highest grade commercially available.
The following buffers were used: Activation buffer: 32.5 mM sodium acetate, adjusted to pH 3.5 with HCl; Assay buffer: 150 mM sodium acetate, 4 mM EDTA, 20 mM L-Cysteine, adjusted to pH 5.5 with HCl,
To activate the proenzyme, 5 μl procathepsin K were mixed with 1 ul activation buffer, and incubated at room temperature for 30 min.
5 μL test compound (final concentration 0.1 nM to 100 μM) in aqua bidest (containing 4% DMSO, final DMSO concentration 1%) were mixed with 10 uL of Cathepsin K in assay buffer (final concentration 2 ng/μL) and incubated for 10 min. […] The plates were then incubated at room temperature for 60 min. Then, the reaction was stopped by adding 10 μL of E64 in assay buffer (final concentration 1 μM). The fluorescence in the wells was determined using a Molecular Devices SpectraMax M5 Fluorescence Reader (Ex 360 nm, Em 460 nm).
Each assay microtiter plate contains wells with vehicle controls (1% DMSO in bidest) as reference for non-inhibited enzyme activity (100% Ctl; high values) and wells with inhibitor (E64 in bidest+1% DMSO, final concentration […]) as controls for background fluorescence (0% Ctl; low values). The analysis of the data was performed by calculating the percentage of fluorescence in the presence of test compound in comparison to the fluorescence of the vehicle control after subtracting the background fluorescence: (RFU(sample)−RFU(background))*100/(RFU(control)−RFU(background))
Data from these calculations were used to generate IC50 values for inhibition of Cathepsin K, respectively.

recombinant human DPPI (Cathepsin C), sequence (P53634 231-394): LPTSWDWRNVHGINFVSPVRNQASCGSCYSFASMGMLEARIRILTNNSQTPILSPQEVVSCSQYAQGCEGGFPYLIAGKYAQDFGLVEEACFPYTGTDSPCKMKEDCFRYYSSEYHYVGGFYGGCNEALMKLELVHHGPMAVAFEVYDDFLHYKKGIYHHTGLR
recombinant human DPPI (Cathepsin C), sequence (P53634 395-463): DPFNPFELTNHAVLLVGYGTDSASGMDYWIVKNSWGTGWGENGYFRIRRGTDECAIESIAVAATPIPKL
recombinant human DPPI (Cathepsin C), sequence (P53634 25-134): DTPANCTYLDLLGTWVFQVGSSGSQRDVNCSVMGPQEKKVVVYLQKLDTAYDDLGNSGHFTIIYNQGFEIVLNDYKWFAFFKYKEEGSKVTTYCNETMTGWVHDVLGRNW

IC50 [1] | half-life at 1 μM [2] | IC50 [3] | In vitro stability in human liver microsome incubations t½ ([2]; 1 μM test compound, 37° C., NADPH) | Compound
0.0096 µM | > 2 h |  |  | N#CC(Cc1ccc2c(c1)c(=O)[nH]c1ccccc12)NC(=O)[C@H]1N[C@@H]2CC[C@H]1C2 (stereo partly drawn) [Example 9, (1S,2S,4R)—N-[1-cyano-2-(6-oxo-5H-phenanthridin-8-yl)ethyl]-3-azabicyclo[2.2.1]heptane-2-carboxamide]
0.206 µM | > 2.17 h |  |  | CN1CCN(c2ccc(C[C@@H](C#N)NC(=O)[C@H]3N[C@@H]4CC[C@H]3C4)c(F)c2)C(=O)C1 [Example 125]
0.0366 µM |  | 8.8 µM |  | CS(=O)(=O)c1ccc(-c2ccc(C[C@@H](C#N)NC(=O)[C@H]3N[C@H]4C[C@@H]3[C@@H]3C[C@@H]34)c(F)c2)cc1 [Example 141]
0.0263 µM |  | 11.1 µM |  | CS(=O)(=O)c1cccc(-c2ccc(C[C@@H](C#N)NC(=O)[C@H]3N[C@H]4C[C@@H]3[C@@H]3C[C@@H]34)c(F)c2)c1 [Example 144]
0.0538 µM |  | 7.4 µM |  | N#C[C@H](Cc1ccc(-c2ccc(Cl)nc2)cc1F)NC(=O)[C@H]1N[C@H]2C[C@@H]1[C@@H]1C[C@@H]12 [Example 145]
0.0305 µM |  | 9.6 µM |  | N#C[C@H](Cc1ccc(-c2cccc(C(N)=O)c2)cc1F)NC(=O)[C@H]1N[C@H]2C[C@@H]1[C@@H]1C[C@@H]12 [Example 146]
0.0304 µM |  | 14.6 µM |  | N#CC(Cc1ccc(-c2ccc3c(c2)CCNC3=O)cc1F)NC(=O)[C@H]1N[C@H]2C[C@@H]1[C@@H]1C[C@@H]12 (stereo partly drawn) [Example 148]
0.0387 µM |  | 7.6 µM |  | CN1Cc2cc(-c3ccc(C[C@@H](C#N)NC(=O)[C@H]4N[C@H]5C[C@@H]4[C@@H]4C[C@@H]45)c(F)c3)ccc2C1=O [Example 149]
0.0386 µM |  | 9.3 µM |  | CNS(=O)(=O)c1ccc(-c2ccc(C[C@@H](C#N)NC(=O)[C@H]3N[C@H]4C[C@@H]3[C@@H]3C[C@@H]34)c(F)c2)cc1 [Example 150]
0.0369 µM |  | 4.8 µM |  | CCS(=O)(=O)c1ccc(-c2ccc(C[C@@H](C#N)NC(=O)[C@H]3N[C@H]4C[C@@H]3[C@@H]3C[C@@H]34)c(F)c2)cc1 [Example 151]
0.0019 µM |  | 10.7 µM |  | CNC(=O)c1cc(-c2ccc(C[C@@H](C#N)NC(=O)[C@H]3N[C@@H]4CC[C@H]3C4)c(F)c2)cs1 [Example 161]
0.002 µM | > 2.17 h |  |  | N#Cc1ccc(-c2ccc(C[C@@H](C#N)NC(=O)[C@H]3N[C@@H]4CC[C@H]3C4)c(F)c2)o1 [Example 162]
0.0033 µM | 1.57 h |  |  | CC1(C)OC(=O)c2cc(-c3ccc(C[C@@H](C#N)NC(=O)[C@H]4N[C@@H]5CC[C@H]4C5)c(F)c3)ccc21 [Example 166]
0.005 µM | 1.38 h |  |  | N#C[C@H](Cc1ccc(-c2cnn(-c3ccccc3)c2)cc1F)NC(=O)[C@H]1N[C@@H]2CC[C@H]1C2 [Example 171]
0.0074 µM | > 2.17 h |  |  | COCCN1CCN(c2ccc(C[C@@H](C#N)NC(=O)[C@H]3N[C@@H]4CC[C@H]3C4)c(F)c2)CC1C (stereo partly drawn) [Example 178]
0.0077 µM | > 2 h |  |  | N#C[C@H](Cc1ccc(-n2cccn2)cc1F)NC(=O)[C@H]1N[C@@H]2CC[C@H]1C2 [Example 180]
0.0088 µM | > 2.17 h |  |  | CS(=O)(=O)c1cc(-c2ccc(C[C@@H](C#N)NC(=O)[C@H]3N[C@@H]4CC[C@H]3C4)c(F)c2F)ccc1C#N [Example 183]
0.0088 µM | > 2.17 h |  |  | CCNC(=O)c1ccc(-c2ccc(C[C@@H](C#N)NC(=O)[C@H]3N[C@@H]4CC[C@H]3C4)c(F)c2)cc1 [Example 184]
0.0096 µM |  | 3.5 µM |  | CNC(=O)c1ccc(-c2ccc(C[C@@H](C#N)NC(=O)[C@H]3N[C@@H]4CC[C@H]3C4)c(F)c2)cc1 [Example 186]
 | 1.62 h |  |  | C[C@H]1CN(C)CCN1c1ccc(C[C@@H](C#N)NC(=O)[C@H]2N[C@@H]3CC[C@H]2C3)c(F)c1 [Example 188]
0.0104 µM | > 2.17 h |  |  | N#C[C@H](Cc1ccc(OCCN2CCNCC2)cc1F)NC(=O)[C@H]1N[C@@H]2CC[C@H]1C2 [Example 189]
0.0112 µM | 1.52 h |  |  | COCCN1C(C)CN(c2ccc(C[C@@H](C#N)NC(=O)[C@H]3N[C@@H]4CC[C@H]3C4)c(F)c2)CC1C (stereo partly drawn) [Example 191]

IC50 [1] | half-life at 1 μM [2] | IC50 [3] | In vitro stability in human liver microsome incubations t½ ([2]; 1 μM test compound, 37° C., NADPH) | Compound
 | > 2.17 h |  |  | CC1CN(C)CCN1c1ccc(C[C@@H](C#N)NC(=O)[C@H]2N[C@@H]3CC[C@H]2C3)c(F)c1 (stereo partly drawn) [Example 192]
0.0133 µM | 1.42 h |  |  | N#C[C@H](Cc1ccc(-c2cnc3cnccn23)cc1F)NC(=O)[C@H]1N[C@@H]2CC[C@H]1C2 [Example 194]
0.0151 µM | > 2.17 h |  |  | CC1CN(c2ccc(C[C@@H](C#N)NC(=O)[C@H]3N[C@@H]4CC[C@H]3C4)c(F)c2)C(C)CN1C (stereo partly drawn) [Example 196]
0.0233 µM |  | 8.4 µM |  | N#CC(Cc1ccc2c(c1)[nH]c1ccccc12)NC(=O)[C@H]1N[C@@H]2CC[C@H]1C2 (stereo partly drawn) [Example 203]
0.0259 µM | > 2.17 h |  |  | N#C[C@H](Cc1ccc(N2CCOCC2)cc1F)NC(=O)[C@H]1N[C@@H]2CC[C@H]1C2 [Example 205]
0.0037 µM | > 2.17 h |  |  | N#C[C@H](Cc1ccc(-c2cnc3n2CCC3)cc1F)NC(=O)[C@H]1N[C@@H]2CC[C@H]1C2 [Example 221]
0.0016 µM |  | 2 µM |  | COCCN1CCN(C(=O)c2cc(-c3ccc(C[C@@H](C#N)NC(=O)[C@H]4N[C@@H]5CC[C@H]4C5)c(F)c3)cs2)CC1 [Example 228]
0.0017 µM |  | 1.6 µM |  | N#C[C@H](Cc1ccc(-c2csc(C(=O)N3CCN(C4CC4)CC3)c2)cc1F)NC(=O)[C@H]1N[C@@H]2CC[C@H]1C2 [Example 229]
0.0038 µM |  | 2.9 µM |  | N#C[C@H](Cc1ccc(-c2csc(C(=O)N3CCN4CCOCC4C3)c2)cc1F)NC(=O)[C@H]1N[C@@H]2CC[C@H]1C2 (stereo partly drawn) [Example 234]
0.0046 µM |  | 1.9 µM |  | N#C[C@H](Cc1ccc(-c2ccc(C(=O)N3CCn4nccc4C3)s2)cc1F)NC(=O)[C@H]1N[C@@H]2CC[C@H]1C2 [Example 237]
0.018 µM | > 2.17 h |  |  | N#C[C@H](Cc1ccc(N2CCC3C(=O)NCCC3C2)cc1F)NC(=O)[C@H]1N[C@@H]2CC[C@H]1C2 (stereo partly drawn) [Example 248]
0.0109 µM | > 2.17 h |  |  | Cn1ccc(-c2ccc(C[C@@H](C#N)NC(=O)[C@H]3N[C@@H]4CC[C@H]3C4)c(F)c2)cc1=O [Example 255]
0.0079 µM | > 2.17 h |  |  | N#C[C@H](Cc1ccc(-c2ccc(=O)[nH]c2)cc1F)NC(=O)[C@H]1N[C@@H]2CC[C@H]1C2 [Example 258]
0.0437 µM | > 2.17 h |  |  | CS(=O)(=O)c1ccn(-c2ccc(C[C@@H](C#N)NC(=O)[C@H]3N[C@@H]4CC[C@H]3C4)c(F)c2)c(=O)c1 [Example 266]
 |  |  | 2.17 h | N#C[C@H](Cc1ccc(N2CCCN3CCCC3C2)cc1F)NC(=O)[C@H]1N[C@@H]2CC[C@H]1C2 (stereo partly drawn) [Example 271]
0.0068 µM | > 2.17 h |  |  | CCN1CCN(c2ccc(C[C@@H](C#N)NC(=O)[C@H]3N[C@@H]4CC[C@H]3C4)c(F)c2)CC1 [Example 272]
0.003 µM | > 2.17 h |  |  | CN(C)CCCN1C(=O)Cc2ccc(-c3ccc(C[C@@H](C#N)NC(=O)[C@H]4N[C@@H]5CC[C@H]4C5)c(F)c3)cc21 [Example 277]
 | 0.967 h |  |  | N#C[C@H](Cc1ccc([C@H]2CCN3CCOC[C@H]3C2)cc1F)NC(=O)[C@H]1N[C@@H]2CC[C@H]1C2 [Example 284]
0.0025 µM | 1.83 h |  |  | CN1CCN(C(=O)c2ccc(-c3ccc(C[C@@H](C#N)NC(=O)[C@H]4N[C@@H]5CC[C@H]4C5)c(F)c3)o2)CC1 [Example 289]
0.0059 µM | > 2.17 h |  |  | N#CC(Cc1ccc2c(c1)c(=O)[nH]c1c(F)cc(C(N)=O)cc12)NC(=O)[C@H]1N[C@@H]2CC[C@H]1C2 (stereo partly drawn) [Example 291]
0.0032 µM |  | 12.4 µM |  | N#CC(Cc1ccc2c(c1)c(=O)[nH]c1cc(Cl)ccc12)NC(=O)[C@H]1N[C@@H]2CC[C@H]1C2 (stereo partly drawn) [Example 297]
0.0019 µM |  | 1.1 µM |  | Cn1c(=O)c2cc(C[C@@H](C#N)NC(=O)[C@H]3N[C@@H]4CC[C@H]3C4)c(F)cc2c2ccccc21 [Example 326]
